Measured values taken from publication doi:10.1101/611376v1 (biorxiv, 2019).

Target: human insulin (hINS) (Homo sapiens, UniProt P01308)
Experiment: isothermal titration calorimetry
Assay type: binding

human insulin (hINS), sequence (P01308 25-54): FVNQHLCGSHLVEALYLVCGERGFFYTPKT
human insulin (hINS), sequence (P01308 90-110): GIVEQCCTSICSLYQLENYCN

Kd: 12.8 µM
SMILES: Oc1ccc(/C=C/c2cc(O)cc(O)c2)cc1 [resveratrol, trans-3,4,5-trihydroxystilbene]
